Key:
[1] = test system: Human immunodeficiency virus 1; experiment: Antiviral activity against HIV-1 infected in human MT4 cells assessed as inhibition of viral infection measured after 72 hrs; format: functional; settings: Human immunodeficiency virus 1, MT4, 72 h
[2] = Clearance in rat at 1 mg/kg, iv or 5 mg/kg, po; format: ADME, organism-based; settings: in vivo
[3] = Oral bioavailability in rat at 5 mg/kg; format: ADME, organism-based; settings: in vivo
Protease = Protease (Human immunodeficiency virus 1, UniProt Q9YQ12); experiment: Inhibition of wild-type HIV1 protease expressed in Escherichia coli assessed as reduction in product formation preincubated for 30 mins followed by addition of Val-Ser-Gln-Asn-(beta-naphtyl)Ala-Pro-Ile-Val as substrate measured after 1 hr
Chain of Protease (Q9YQ12 whole entry): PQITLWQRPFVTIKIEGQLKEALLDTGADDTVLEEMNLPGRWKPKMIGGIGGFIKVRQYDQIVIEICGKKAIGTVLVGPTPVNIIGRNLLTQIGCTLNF

[4] = Clearance in rat at 2 mg/kg, iv or 10 mg/kg, po; format: ADME, organism-based; settings: in vivo
[5] = Oral bioavailability in rat at 10 mg/kg; format: ADME, organism-based; settings: in vivo
[6] = test system: Human immunodeficiency virus; experiment: Inhibition of HIV protease at 1 uM

Row | SMILES | IC95 [1] | clearance [2] | bioavailability [3] | IC50 (Protease) | clearance [4] | bioavailability [5] | inhibition [6]
1 | COC(=O)N[C@H](C(=O)Nc1ccccc1CC[C@@H]1CN[C@H](COC(=O)NCc2ccccc2)CO1)C(c1ccccc1)c1ccccc1 | 200 nM | 27 mL/min/kg | < 5% | 6.1 nM | – | – | –
2 | COC(=O)N[C@H](C(=O)Nc1ccccc1CC[C@@H]1CN[C@H](COC(=O)N[C@H]2CCc3ccccc32)CO1)C(c1ccccc1)c1ccccc1 | 63 nM | 87 mL/min/kg | < 5% | 3.5 nM | – | – | –
3 | COC(=O)N[C@H](C(=O)Nc1ccccc1CC[C@@H]1CN[C@H](COC(N)=O)CO1)C(c1ccccc1)c1ccccc1 | 120 nM | 30 mL/min/kg | 16% | 20 nM | – | – | –
4 | N[C@H](C(=O)Nc1cccc(F)c1CC[C@@H]1CN[C@H](COC(=O)NCC(F)(F)F)CO1)C(c1ccccc1)c1ccccc1 | 230 nM | – | – | 3.1 nM | – | – | –
5 | COC(=O)N[C@H](C(=O)Nc1cccc(F)c1CC[C@@H]1CN[C@H](COC(=O)NCC(F)(F)F)CO1)C(c1ccccc1)c1ccccc1 | 95 nM | 36 mL/min/kg | 37% | 12 nM | – | – | –
6 | COC(=O)N[C@H](C(=O)Nc1ccccc1CC[C@@H]1CN[C@H](COC(=O)NC(C)C)CO1)C(c1ccccc1)c1ccccc1 | 190 nM | 60 mL/min/kg | 33% | 37 nM | – | – | –
7 | COC(=O)N[C@H](C(=O)Nc1ccccc1CC[C@@H]1CN[C@H](COC(=O)NCc2cccc(Cl)n2)CO1)C(c1ccccc1)c1ccccc1 | 150 nM | 45 mL/min/kg | 17% | 3.4 nM | – | – | –
8 | COC(=O)N[C@H](C(=O)Nc1ccccc1CC[C@@H]1CN[C@H](COC(=O)NCc2ccc(Cl)s2)CO1)C(c1ccccc1)c1ccccc1 | 170 nM | 33 mL/min/kg | 13% | 2.4 nM | – | – | –
9 | COC(=O)N[C@H](C(=O)N[C@@H](Cc1ccccc1)[C@@H](O)CN(Cc1ccc(-c2ccccn2)cc1)NC(=O)[C@@H](NC(=O)OC)C(C)(C)C)C(C)(C)C [ATAZANAVIR] | 17 nM | – | – | 0.04 nM | – | – | –
10 | COC(=O)N[C@H](C(=O)Nc1cnccc1CC[C@@H]1CN[C@H](COC(=O)NCC(F)(F)F)CO1)C(c1ccccc1)c1ccccc1 | 330 nM | 81 mL/min/kg | < 5% | 14 nM | – | – | –
11 | N[C@H](C(=O)Nc1cncc(F)c1CC[C@@H]1CN[C@H](COC(=O)NCC(F)(F)F)CO1)[C@@H](c1ccc(F)cc1)c1cccc(F)c1 | 66 nM | – | – | 2.4 nM | 16 mL/min/kg | 37% | –
12 | N[C@H](C(=O)Nc1cccc(F)c1CC[C@@H]1CN[C@H](COC(=O)NCC(F)(F)F)CO1)[C@@H](c1ccc(F)cc1)c1cccc(F)c1 | 75 nM | – | – | 6.4 nM | 45 mL/min/kg | 30% | –
13 | COC(=O)N[C@H](C(=O)Nc1cncc(F)c1CC[C@@H]1CN[C@H](COC(=O)NCC(F)(F)F)CO1)C(c1ccccc1)c1ccccc1 | 94 nM | 11 mL/min/kg | 15% | 3.5 nM | – | – | –
14 | COC(=O)N[C@H](C(=O)Nc1ccccc1CC[C@@H]1CN[C@H](COC(=O)NCc2ccc(F)cc2)CO1)C(c1ccccc1)c1ccccc1 | 170 nM | 49 mL/min/kg | 47% | 4.1 nM | – | – | –
15 | COC(=O)N[C@H](C(=O)Nc1ccccc1CC[C@@H]1CN[C@H](COC(=O)N[C@@H]2CCc3ccccc32)CO1)C(c1ccccc1)c1ccccc1 | 370 nM | 110 mL/min/kg | < 5% | 9.7 nM | – | – | –
16 | N[C@H](C(=O)Nc1cncc(F)c1CC[C@@H]1CN[C@H](COC(=O)NCC(F)(F)F)CO1)[C@@H](c1ccc(F)cc1)c1cc(F)cc(F)c1 | 130 nM | – | – | 2.4 nM | – | – | –
17 | N[C@H](C(=O)Nc1cccc(F)c1CC[C@@H]1CN[C@H](COC(=O)NCC(F)(F)F)CO1)[C@@H](c1ccc(F)cc1)c1cc(F)cc(F)c1 | 61 nM | – | – | 8.2 nM | 22 mL/min/kg | 14% | –
18 | N[C@H](C(=O)Nc1cncc(F)c1CC[C@@H]1CN[C@H](COC(=O)NCC(F)(F)F)CO1)[C@@H](c1ccc(Cl)cc1)c1cc(F)cc(F)c1 | 49 nM | – | – | 0.8 nM | 11 mL/min/kg | 25% | –
19 | COC(=O)N[C@H](C(=O)Nc1ccccc1CC[C@@H]1CN[C@H](COC(=O)NCC(F)(F)F)CO1)C(c1ccccc1)c1ccccc1 | 120 nM | 36 mL/min/kg | 19% | 27 nM | – | – | –
20 | COC(=O)N[C@H](C(=O)Nc1ccccc1CC[C@@H]1CN[C@H](COC(=O)NCc2ccccc2F)CO1)C(c1ccccc1)c1ccccc1 | 180 nM | 61 mL/min/kg | – | 3.6 nM | – | – | –
21 | COC(=O)N[C@H](C(=O)NCCCC1CNCCO1)C(c1ccccc1)c1ccccc1 (stereo partly drawn) | – | – | – | – | – | – | 11%
22 | N[C@H](C(=O)Nc1cncc(F)c1CC[C@@H]1CN[C@H](COC(=O)NCC(F)(F)F)CO1)C(c1ccccc1)c1ccccc1 | 150 nM | – | – | 9.9 nM | 13 mL/min/kg | 59% | –
